Test results reported in US9718828B2 (MERCK SHARP & DOHME CORP., priority 2011, dated 2017).
Counter-ions that a name gives are not always drawn. Like-named read-outs stand apart in the source and are kept apart here.

Target: Btk enzyme (His-Btk) (Homo sapiens (Human), UniProt Q06187)
Assay: Btk enzyme activity, IMAP fluorescence polarization assay (Assay Method A)
[1] = read-out: EC50 Btk activity values - Assay Method A, IMAP-FP, 60 min pre-incubation, 5 μM ATP, class 100-1000 is given as ≧100 nM-<1 μM

Chain of Btk enzyme (His-Btk) (Q06187 whole entry): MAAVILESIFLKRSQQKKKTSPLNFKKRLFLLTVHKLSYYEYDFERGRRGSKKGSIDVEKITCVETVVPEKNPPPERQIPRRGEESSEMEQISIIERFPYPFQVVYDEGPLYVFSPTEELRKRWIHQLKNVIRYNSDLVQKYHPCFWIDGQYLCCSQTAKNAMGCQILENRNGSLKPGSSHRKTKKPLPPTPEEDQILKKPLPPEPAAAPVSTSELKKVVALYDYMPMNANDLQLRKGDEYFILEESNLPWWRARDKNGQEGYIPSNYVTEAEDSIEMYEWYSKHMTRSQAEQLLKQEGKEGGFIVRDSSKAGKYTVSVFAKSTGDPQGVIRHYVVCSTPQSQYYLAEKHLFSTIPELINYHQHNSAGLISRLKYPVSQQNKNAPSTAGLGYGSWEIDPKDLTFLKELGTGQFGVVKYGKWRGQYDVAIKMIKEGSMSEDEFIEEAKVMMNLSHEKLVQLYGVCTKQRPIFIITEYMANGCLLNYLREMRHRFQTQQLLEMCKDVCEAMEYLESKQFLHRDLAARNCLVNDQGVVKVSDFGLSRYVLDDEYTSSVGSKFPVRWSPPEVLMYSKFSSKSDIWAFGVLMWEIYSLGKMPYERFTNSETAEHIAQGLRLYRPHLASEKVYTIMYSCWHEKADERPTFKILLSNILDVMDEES

| EC50 [nM] | EC50 [1] [nM] | Structure (SMILES) |
| --- | --- | --- |
| 10 to 100 | – | CCN(CC)c1nc(-c2ccc(C(=O)Nc3cc(C(F)(F)F)ccn3)cc2)c2c(N)nccn12 [Example 216, 4-(8-amino-3-(diethylamino)imidazo[1,5-a]pyrazin-1-yl)-N-(4-(trifluoromethyl)pyridin-2-yl)benzamide] |
| – | < 10 | Nc1nccn2c(C3CCOCC3)nc(-c3ccc(C(=O)Nc4cc(C(F)(F)F)ccn4)cc3)c12 [Example 25, 4-(8-amino-3-(tetrahydro-2H-pyran-4-yl)imidazo[1,5-a]pyrazin-1-yl)-N-(4-(trifluoromethyl)pyridin-2-yl)benzamide] |
| 10 to 100 | – | Cc1ccc(NC(=O)C(=O)N2CCC[C@@H](c3nc(-c4ccc(C(=O)Nc5cc(C6CC6)ccn5)cc4)c4c(N)nccn34)C2)cc1C [Example 113, (R)-4-(8-amino-3-(1-(2-(3,4-dimethylphenylamino)-2-oxoacetyl)piperidin-3 yl)imidazo[1,5-a]pyrazin-1-yl)-N-(4-cyclopropylpyridin-2-yl)benzamide] |
| – | < 10 | COC[C@H](C)NC(=O)C1CCCN(c2nc(-c3ccc(C(=O)Nc4ccccn4)cc3)c3c(N)nccn23)C1 (stereo partly drawn) [Example 235, 1-(8-amino-1-(4-(pyridin-2-ylcarbamoyl)phenyl)imidazo[1,5-a]pyrazin-3-yl)-N-((S)-1-methoxypropan-2-yl)piperidine-3-carboxamide, TFA salt] |
| 100 to 1000 | – | N#Cc1ccnc(NC(=O)c2ccc(-c3nc(N4CCC4)n4ccnc(N)c34)cc2)c1 [Example 209, 4-(8-amino-3-(azetidin-1-yl)imidazo[1,5-a]pyrazin-1-yl)-N-(4-cyanopyridin-2-yl)benzamide] |
| 10 to 100 | – | CCc1cnc(NC(=O)c2ccc(-c3nc([C@H]4CC[C@@H](OC)CC4)n4ccnc(N)c34)cc2)s1 [Example 39, 4-(8-amino-3-((cis)-4-methoxycyclohexyl)imidazo [1,5-a]pyrazin-1-yl)-N-(5-ethylthiazol-2-yl)benzamide] |
| – | < 10 | C[C@H]1CC[C@@H](c2nc(-c3ccc(C(=O)Nc4cc(C5CC5)ccn4)cc3)c3c(N)nccn23)CN1C(=O)N1CCCCC1 (relative stereo) [Example 184, 4-(8-amino-3-((cis)-6-methyl-1-(piperidine-1-carbonyl)piperidin-3-yl)imidazo[1,5-a]pyrazin-1-yl)-N-(4-cyclopropylpyridin-2-yl)benzamide, TFA salt] |
| < 10 | – | Nc1nccn2c(C3CCc4[nH]nc(C5CC5)c4C3)nc(-c3ccc(C(=O)Nc4cc(C(F)(F)F)ccn4)cc3)c12 (stereo not shown) [Example 248, 4-(8-amino-3-(3-cyclopropyl-4,5,6,7-tetrahydro-1H-indazol-5-yl)imidazo[1,5-a]pyrazin-1-yl)-N-(4-(trifluoromethyl)pyridin-2-yl)benzamide] |
| – | < 10 | Nc1nccn2c([C@@H]3CCCN(Cc4ccncc4)C3)nc(-c3ccc(C(=O)Nc4cc(C(F)(F)F)ccn4)cc3)c12 [Example 141, (R)-4-(8-amino-3-(1-(pyridin-4-ylmethyl)piperidin-3-yl)imidazo[1,5-a]pyrazin-1-yl)-N-(4-(trifluoromethyl)pyridin-2-yl)benzamide, TFA salt] |
| – | < 10 | CC(C)c1ccnc(NC(=O)c2ccc(-c3nc([C@H]4CC[C@H](O)CC4)n4ccnc(N)c34)cc2)c1 [Example 6, 4-(8-amino-3-((trans)-4-hydroxycyclohexyl)imidazo[1,5-a]pyrazin-1-yl)-N-(4-isopropylpyridin-2-yl)benzamide] |
| – | < 10 | CCCc1ccnc(NC(=O)c2ccc(-c3nc([C@H]4[C@@H]5COC[C@@H]54)n4ccnc(N)c34)cc2)c1 [Example 30, 4-(8-amino-3-((1R,5S,6S)-3-oxabicyc1o[3.1.0]hexan-6-yl)imidazo[1,5-a]pyrazin-1-yl)-N-(4-propylpyridin-2-yl)benzamide, TFA salt] |
| – | < 10 | COCCC(=O)N1CCOC(c2nc(-c3ccc(C(=O)Nc4cc(C(F)(F)F)ccn4)cc3)c3c(N)ncc(Cl)n23)C1 (stereo not shown) [Example 314, 4-(8-amino-5-chloro-3-(4-(3-methoxypropanoyl)morpholin-2-yl)imidazo[1,5-a]pyrazin-1-yl)-N-(4-(trifluoromethyl)pyridin-2-yl)benzamide] |
| – | < 10 | CCOCCC(=O)N1C[C@H](c2nc(-c3ccc(C(=O)Nc4cc(C(F)(F)F)ccn4)cc3)c3c(N)nccn23)CC[C@@H]1C (relative stereo) [Example 189, 4-(8-amino-3-((cis)-1-(3-ethoxypropanoyl)-6-methylpiperidin-3-yl)imidazo[1,5-a]pyrazin-1-yl)-N-(4-(trifluoromethyl)pyridin-2-yl)benzamide, TFA salt] |
| 100 to 1000 | – | Nc1nccn2c(C3CC34CCN(C(=O)CO)CC4)nc(-c3ccc(C(=O)Nc4ccccn4)cc3)c12 (stereo not shown) [Example 152, 4-(8-amino-3-(6-(2-hydroxyacetyl)-6-azaspiro[2.5]octan-1-yl)imidazo[1,5-a]pyrazin-1-yl)-N-(pyridin-2-yl)benzamide] |
| 10 to 100 | – | Nc1nccn2c([C@@H]3CCCN(Cc4ccc[nH]4)C3)nc(-c3ccc(C(=O)Nc4cc(C5CC5)ccn4)cc3)c12 [Example 144, (R)-4-(3-(1-((1H-pyrrol-2-yl)methyl)piperidin-3-yl)-8-aminoimidazo[1,5-a]pyrazin-1-yl)-N-(4-cyclopropylpyridin-2-yl)benzamide, TFA salt] |
| – | < 10 | CCCc1ccnc(NC(=O)c2ccc(-c3nc([C@H]4CC[C@H](O)CC4)n4ccnc(N)c34)cc2)c1 [Example 3, 4-(8-amino-3-((trans)-4-hydroxycyclohexyl)imidazo[1,5-a]pyrazin-1-yl)-N-(4-propylpyridin-2-yl)benzamide] |
| < 10 | – | N#Cc1ccnc(NC(=O)c2ccc(-c3nc([C@@H]4CCCN(C(=O)C5CC5)C4)n4ccnc(N)c34)cc2)c1 [Example 98, (R)-4-(8-amino-3-(1-(cyclopropanecarbonyl)piperidin-3-yl)imidazo[1,5-a]pyrazin-1 yl)-N-(4-cyanopyridin-2-yl)benzamide] |
| < 10 | – | CC(C)(CO)C(=O)N1CCC[C@@H](c2nc(-c3ccc(C(=O)Nc4cc(C(F)(F)F)ccn4)cc3)c3c(N)nccn23)C1 [Example 78, (R)-4-(8-amino-3-(1-(3-hydroxy-2,2-dimethylpropanoyl)piperidin-3-yl)imidazo[1,5-a]pyrazin-1-yl)-N-(4-(trifluoromethyl)pyridin-2-yl)benzamide] |
| – | < 10 | Nc1ncnc2c1c(-c1ccc(C(=O)Nc3cc(C(F)(F)F)ccn3)cc1)nn2[C@@H]1CCCN(C(=O)C2CC2)C1 [Example 269, (R)-4-(4-amino-1-(1-(cyclopropanecarbonyl)piperidin-3-yl)-1H-pyrazolo[3,4-d]pyrimidin-3-yl)-N-(4-(trifluoromethyl)pyridin-2-yl)benzamide] |
| < 10 | – | Nc1nccn2c([C@@H]3CCCN(S(=O)(=O)C4CC4)C3)nc(-c3ccc(C(=O)Nc4cc(C(F)(F)F)ccn4)cc3)c12 [Example 75, (R)-4-(8-amino-3-(1-(cyclopropylsulfonyl)piperidin-3-yl)imidazo[1,5-a]pyrazin-1-yl)-N-(4-(trifluoromethyl)pyridin-2-yl)benzamide] |
| – | < 10 | COCCC(=O)N[C@@H]1CCC[C@@H](c2nc(-c3ccc(C(=O)Nc4cc(C(F)(F)F)ccn4)cc3)c3c(N)nccn23)C1 (relative stereo) [Example 166, 4-(8-amino-3-((trans)-3-(3-methoxypropanamido)cyclohexyl)imidazo[1,5-a]pyrazin-1-yl)-N-(4-(trifluoromethyl)pyridin-2-yl)benzamide] |
| – | < 10 | Nc1nccn2c(C3CCCC3)nc(-c3ccc(C(=O)Nc4ccccn4)cc3)c12 [Example 45, 4-(8-amino-3-cyclopentylimidazo[1,5-a]pyrazin-1-yl)-N-(pyridin-2-yl)benzamide, TFA salt] |
| 10 to 100 | – | Nc1ncnn2c([C@@H]3CCCNC3)nc(-c3ccc(C(=O)Nc4cc(C(F)(F)F)ccn4)cc3)c12 [Example 258, (R)-4-(4-amino-7-(piperidin-3-yl)imidazo[1,5-f][1,2,4]triazin-5-yl)-N-(4-(trifluoromethyl)pyridin-2-yl)benzamide] |
| < 10 | – | Nc1nccn2c([C@@H]3CCCN(C(=O)C4CC(F)(F)C4)C3)nc(-c3ccc(C(=O)Nc4cc(C(F)(F)F)ccn4)cc3)c12 [Example 83, (R)-4-(8-amino-3-(1-(3,3-difluorocyclobutanecarbonyl)piperidin-3-yl)imidazo[1,5-a]pyrazin-1-yl)-N-(4-(trifluoromethyl)pyridin-2-yl)benzamide] |
| – | < 10 | COC[C@H](C)NC(=O)C1CCCN(c2nc(-c3ccc(C(=O)Nc4cc(C5CC5)ccn4)cc3)c3c(N)nccn23)C1 (stereo partly drawn) [Example 241, 1-(8-amino-1-(4-(4-cyclopropylpyridin-2-ylcarbamoyl)phenyl)imidazo[1,5-a]pyrazin-3-yl)-N-((S)-1-methoxypropan-2-yl)piperidine-3-carboxamide, TFA salt] |
| – | < 10 | Nc1nccn2c(N3CCC[C@@H](NC(=O)C4CC4)C3)nc(-c3ccc(C(=O)Nc4cc(C(F)(F)F)ccn4)cc3)c12 [Example 220, (R)-4-(8-amino-3-(3-(cyclopropanecarboxamido)piperidin-1-yl)imidazo[1,5-a]pyrazin-1-yl)-N-(4-(trifluoromethyl)pyridin-2-yl)benzamide] |
| – | < 10 | CC1(C(=O)N2CCC[C@@H](n3nc(-c4ccc(C(=O)Nc5cc(C(F)(F)F)ccn5)cc4)c4c(N)ncnc43)C2)CCC1 [Example 266, (R)-4-(4-amino-1-(1-(1-methylcyclobutanecarbonyl)piperidin-3-yl)-1H-pyrazolo[3,4-d]pyrimidin-3-yl)-N-(4-(trifluoromethyl)pyridin-2-yl)benzamide] |
| 10 to 100 | – | Nc1nccn2c1c(-c1ccc(C(=O)Nc3nc4c(s3)COCC4)cc1)nc2[C@H]1CC[C@H](O)CC1 [Example 15, 4-(8-amino-3-((trans)-4-hydroxycyclohexyl)imidazo[1,5-a]pyrazin-1-yl)-N-(6,7-dihydro-4H-pyrano[4,3-d]thiazol-2-yl)benzamide] |
